“Also recorded” adds a separate entry of the source. One block for each molecule: values may come before it.
Columns and labels:
[1] = system: cuprizone-induced demyelination mice; assay: Cuprizone-induced demyelination model with cuprizone withdrawal, Experiment 2; format: in vivo, mouse (C57BL/6); conditions: week 5 to week 7; COMPOUND 100 mg/kg b.i.d., fingolimod 0.3 mg/kg q.d.
Description: Male C57BL/6 mice are exposed to a 0.2% cuprizone diet for six weeks and then switched to control food for one more week. Groups of 8-9 mice are dosed orally starting after five weeks of cuprizone exposure. It consists of three treatment groups: • 1. Vehicle (0.5% Methylcellulose/0.5% Tween® 80) b.i.d., from week 5 to week 7 • 2. Fingolimod (0.3 mg/kg) q.d.+Vehicle q.d., from week 5 to week 7 • 3. […] Hematology parameters, including lymphocyte count, are measured at the termination of the experiment, one hour after the last dosing. […] Brain samples are isolated and fixed for histopathological and immunohistochemistry examinations to assess the degree of demyelination (Luxol Fast Blue for myelin staining).

[2] = system: cuprizone-induced demyelination mice; assay: Cuprizone-induced demyelination mouse model, Experiment 1; format: in vivo, mouse (C57BL/6); conditions: 6 weeks
Description: Male C57BL/6 mice are exposed to cuprizone (CPZ; 150 mg/kg, b.i.d.), a […] chelating agent which leads to the death of mature oligodendrocytes, by oral gavage twice daily for six weeks. […] The experiment is terminated after 6 weeks of cuprizone exposure. […] CXCL12 plasma concentrations are measured as previously described in example A. Brain samples are isolated and fixed for histopathological and immunohistochemistry examinations to assess the degree of demyelination (Luxol Fast Blue for myelin staining) and the loss of mature oligodendrocytes (GSTiT staining).

MOG-induced EAE mice [3] = assay: Monotherapy efficacy experiment in MOG-induced EAE model (preventive setting); format: in vivo, mouse (C57BL/6)
Description: (§1) Female C57BL/6 mice are immunized with an emulsion of MOG in complete Freund's adjuvant (CFA) and pertussis toxin (day 0). A total of 150 μg of MOG is injected per mice at two sites subcutaneously in each flank of the abdomen. Mice are injected intraperitoneally with pertussis toxin a second time, 2 days after the first injection (day 2). Within 9 to 14 days, mice develop signs of paralysis which will be graded on a scale from 0 to 5 assessing the tail and limbs defined as: 0=no clinical sign of EAE, 0.5=end tail paralyzed or one limb weakness, 1=tail paralyzed or two limbs weakness, 1.5=tail paralyzed and one hind limb weakness, 2=tail paralyzed and bilateral partial hind limb paralysis, 2.5=tail paralyzed and unilateral complete hind limb paralysis, 2.75=score of 2.5+unilateral partial hind limb paralysis, 3=complete bilateral hind limb paralysis, 3.25=3+unilateral partial forelimb paralysis, 3.5=3+unilateral complete forelimb paralysis, 4=complete paralysis (moribund) and, 5=death or euthanized.
The disease progression follows a chronic progressive course with no remission.
It consists of four treatment groups: • 1. Vehicle (water) b.i.d., from day 0 • 2.
Clinical scores are assessed on a daily basis and disease development is compared between vehicle-treated mice and mice receiving COMPOUND. The cumulative disease score is calculated for each mouse by summing all the daily clinical scores over the 29-days study period. The experiment is terminated at day 29, 1 to 4 hours post dosing. […] CXCL12 plasma concentrations are determined using a commercial quantikine ELISA mouse CXCL12/SDF1c kit from R&D systems, according to manufacturer's instructions.
Groups of 10 mice are dosed orally starting at the day of disease induction (day 0). It consists of two treatment groups: • 1. Vehicle (0.5% Methylcellulose/0.5% Tween® 80) b.i.d., from day 0 • 2. Fingolimod (0.03 mg/kg) q.d.+Vehicle q.d., from day 0
Clinical scores are assessed on a daily basis and disease development is compared between vehicle-treated mice and mice receiving fingolimod. The cumulative disease score is calculated for each mouse by summing all the daily clinical scores over the 27-days study period. The experiment is terminated at day 27.

PLP-induced EAE mice = assay: Monotherapy efficacy experiment in the PLP-induced EAE model (therapeutic setting); format: in vivo, mouse (SJL/J)
Description: as §1, with “SJL/J” for “C57BL/6”, “PLP” for “MOG”, “CFA” for “complete Freund's adjuvant (CFA)”, “100” for “150”, “16” for “14”, “euthanized. The disease progression follows a relapsing-remitting course with a first peak of disease occurring three to five days after the onset, followed by a remission phase and a second peak of the disease between 20-30 days after EAE induction.” for “euthanized.”
The study consists of four treatment groups: • 1. Vehicle (water) b.i.d., from disease onset for each mouse • 2.
Clinical scores are assessed on a daily basis, in a blinded manner and disease development is compared between vehicle-treated mice and mice receiving COMPOUND. The cumulative disease score is calculated for each mouse by summing all the daily clinical scores over the 30-days after treatment initiation. […] CXCL12 plasma concentrations are determined as previously described in example A.

[4] = First-in-human single-dose study in healthy male subjects (NCT03869320); format: in vivo; conditions: male, human, plasma
Description: (§2) […] […] In the 30 mg dose level group the effect of food is additionally investigated by administering the same treatment to the same subjects after a standardized high-fat breakfast.

healthy male subjects = assay: as above; format: in vivo
Description: as §2

MOG-induced EAE mice [5] = assay: Combination efficacy experiment in the MOG-induced EAE model (therapeutic setting); format: in vivo, mouse (C57BL/6); conditions: for efficacy on the clinical scores of the disease: from day 7 (just before onset), COMPOUND 100 mg/kg b.i.d., fingolimod 0.03 mg/kg q.d., combination effect from day 14 onwards
Description: The combination efficacy experiment is performed in the same mouse EAE model as described for the pilot experiments.
Groups of 10 mice are dosed orally starting just before the onset of disease (day 7). It consists of four treatment groups: • 1. Vehicle (0.5% Methylcellulose/0.5% Tween® 80) b.i.d., from day 7 • 2. Fingolimod (0.03 mg/kg) q.d.+Vehicle q.d., from day 7 • 3.
Clinical scores are assessed on a daily basis and disease development is compared between vehicle-treated mice and mice receiving the different treatments. The experiment is terminated at day 16 or day 17. Hematology parameters, including lymphocyte count, are measured at the termination of the experiment. […] CXCL12 plasma concentrations are determined using a commercial quantikine ELISA mouse CXCL12/SDF1c kit from R&D systems, according to manufacturer's instructions.

[6] = system: CXCL12 in plasma (biomarker of CXCR7 receptor antagonist); assay: Dose finding of COMPOUND in naive mice, CXCL12 elevation in plasma; format: in vivo, mouse (C57BL/6); conditions: COMPOUND 100 mg/kg b.i.d. oral, 3 days, naive C57BL/6 mice, exposure at trough (14 hours after last dosing), only the highest dose tested
From the text: CXCL12 or CXCL11 plasma concentrations may be determined using methods well known in the art, e.g. an Ella® immunoassay (Bio-Techne®), or a commercial quantikine ELISA mouse CXCL12/SDF1α kit from R&D systems.

[7] = system: lymphocyte count in peripheral blood; assay: Dose finding of fingolimod in healthy mice, lymphocyte count in peripheral blood; format: in vivo, mouse (C57BL/6)
Description: In parallel to the measurement of target engagement of COMPOUND, a second pilot experiment is performed. Healthy female C57BL/6 receive fingolimod at different doses in the range from 0.01 to 0.3 mg/kg, once daily (q.d.). The goal is to assess the dose-effect relationship of fingolimod on lymphocyte count in peripheral blood (which is an established biomarker to monitor pharmacological activity of S1P1 receptor modulators) in this strain of mouse over 24 h.

patients = conditions: cited from earlier work
[8] = system: lymphocyte count in peripheral blood; assay: Dose finding of siponimod in healthy SJL/J mice, alone and with COMPOUND; format: in vivo, mouse (SJL/J); conditions: siponimod 0.3 mg/kg q.d. oral, healthy female SJL/J mice
Description: In a pilot experiment, healthy female SJL/J mice are dosed orally for 2 to 3 days with siponimod at different doses in the range from 0.03 to 1 mg/kg, once daily. The goal is to assess the dose-effect relationship of siponimod on lymphocyte count in peripheral blood (which is an established biomarker to monitor pharmacological activity of S1P1 receptor modulators) in this strain of mouse over 24 h.

[9] = COMPOUND 10, 100, 150 mg/kg b.i.d. from disease onset

bioavailability ([4]; iv, i.v. microtracer, 200 mg dose level group, read-out: absolute bioavailability): ~50%
Tmax ([4]; single oral doses >=10 mg, fasted): 1.3 to 3 h
food effect on the pharmacokinetics (healthy male subjects; 30 mg, standardized high-fat breakfast vs fasted): no relevant food effect
exposure increase across the dose range (healthy male subjects; 1 to 200 mg single oral dose): essentially dose-proportional
Structure (SMILES): O=C(N[C@H]1CCN(CC2CC2)C[C@@H]1C(=O)NC1(c2ncccn2)CC1)c1cc(-c2ccc(F)cc2F)on1 [COMPOUND, (3S,4S)-1-Cyclopropylmethyl-4-{[5-(2,4-difluoro-phenyl)-isoxazole-3-carbonyl]-amino}-piperidine-3-carboxylic acid (1-pyrimidin-2-yl-cyclopropyl)-amide]
spontaneous remyelination in the corpus callosum one week after CPZ withdrawal [1]: accelerated significantly
mature oligodendrocyte counts in the corpus callosum ([2]; COMPOUND 100 mg/kg b.i.d. preventive from day 0 (prev-CPZ)): increased significantly
myelin stain (Luxol Fast Blue) in the corpus callosum ([2]; COMPOUND 100 mg/kg b.i.d. preventive, co-administered with cuprizone from day 0 (prev-CPZ)): increased significantly
mature oligodendrocyte counts in the corpus callosum ([2]; COMPOUND 100 mg/kg b.i.d. therapeutic from week 3 (ther-CPZ)): increased significantly
myelin stain (Luxol Fast Blue) in the corpus callosum ([2]; COMPOUND 100 mg/kg b.i.d. therapeutic, starting 3 weeks after cuprizone start (ther-CPZ)): increased significantly
overall burden of EAE disease (MOG-induced EAE mice [3]; COMPOUND 100 mg/kg b.i.d., preventive setting): significantly reduces
plasma CXCL12 levels (MOG-induced EAE mice [3]; COMPOUND 10, 30, 100 mg/kg b.i.d. from day 0, day 29, 1 to 4 hours post dosing): dose-dependent increase
overall extent of EAE disease, mean cumulative disease scores over the 29-days study (MOG-induced EAE mice [3]; COMPOUND 10, 30, 100 mg/kg b.i.d. oral from day 0 (preventive)): dose-dependent efficacy
CXCL11 plasma levels at trough (PLP-induced EAE mice; COMPOUND 100 mg/kg b.i.d.): increases
CXCL12 plasma levels at trough (PLP-induced EAE mice; COMPOUND 100 mg/kg b.i.d.): increases
clinical scores in the PLP-induced EAE model (PLP-induced EAE mice; COMPOUND 100 mg/kg b.i.d.): maximally reduces
plasma CXCL11 levels (PLP-induced EAE mice; [9]): dose-dependent increase
plasma CXCL12 levels (PLP-induced EAE mice; [9]): dose-dependent increase
overall extent of the disease, mean cumulative disease scores over 30 days after treatment initiation (PLP-induced EAE mice; COMPOUND 10, 100, 150 mg/kg b.i.d. oral from disease onset (therapeutic)): dose-dependent efficacy
dose dependence of plasma CXCL12 concentrations (healthy male subjects; 1 to 200 mg single oral dose): dose-dependently increase
CXCL11 concentrations (healthy male subjects; healthy volunteers, single dose): essentially unchanged
route of excretion (healthy male subjects; oral microtracer, 100 mg dose level group): mainly excreted in feces and to a minor extent in urine
plasma CXCL12 levels compared to baseline (healthy male subjects; single oral dose, across tested dose range): approximately 2 fold
safety and tolerability (healthy male subjects; single oral doses from 1 to 200 mg, healthy male subjects): safe and well tolerated
CXCL12 plasma levels (MOG-induced EAE mice [5]; COMPOUND 100 mg/kg b.i.d. from day 7, at termination): increase
efficacy on the clinical scores of the disease (MOG-induced EAE mice [5]): moderate
plasma CXCL12 increase over 24 h [6]: sustain plasma CXCL12 increase over 24 h; also recorded: sustain CXCL12 plasma levels over 24 hours

Structure (SMILES): CCCCCCCCc1ccc(CCC(N)(CO)CO)cc1 [fingolimod, 2-amino-2-[2-(4-octylphenyl)ethyl]-propane-1,3-diol, reference compound]
spontaneous remyelination in the corpus callosum one week after CPZ withdrawal [1]: no effect
plasma CXCL12 levels (MOG-induced EAE mice [3]; fingolimod 0.03 mg/kg q.d. from day 0): not associated with an increase
overall extent of EAE disease, cumulative disease scores over the 27-days study (MOG-induced EAE mice [3]; fingolimod 0.03 mg/kg q.d. oral from day 0 (preventive)): exhibits efficacy
lymphocyte count in peripheral blood (MOG-induced EAE mice [5]; fingolimod 0.03 mg/kg q.d. from day 7, at termination): reduction
efficacy on the clinical scores of the disease (MOG-induced EAE mice [5]): minimal
lymphocyte count reduction over 24 h ([7]; fingolimod 0.03 mg/kg q.d., healthy female C57BL/6): partial efficacy
lymphocyte count reduction over 24 hours ([7]; fingolimod 0.3 mg/kg q.d.): fully efficacious
time for lymphocyte counts to return to the normal range after stopping therapy (patients; fingolimod, human): 1-2 months
time remaining in the blood with pharmacodynamic effects (decreased lymphocyte counts) following the last dose (patients; fingolimod, human): up to 2 months

Structure (SMILES): CCc1cc(/C(C)=N/OCc2ccc(C3CCCCC3)c(C(F)(F)F)c2)ccc1CN1CC(C(=O)O)C1 [siponimod, 1-(4-[1-[(E)-4-Cyclohexyl-3-trifluoromethyl-benzyloxyimino]-ethyl]-2-ethyl-benzyl)-azetidine-3-carboxylic acid]
lymphocyte count reduction over 24 h [8]: full efficacy
persistence of residual pharmacodynamics effects (lowering of peripheral lymphocyte count) after the last dose (patients; siponimod, human): 3-4 weeks
time remaining in the blood after stopping therapy (patients; siponimod, human): up to 10 days
patients whose lymphocyte counts returned to the normal range (patients; siponimod, within 10 days of stopping therapy): 90 % of patients
